This note sets out measurements from patent US10195144B2, “Methods of treating inflammatory and autoimmune diseases and disorders” (Yale University, priority 2012, dated 2019).

Assay [1] relates to NZB/W F1 lupus-prone mice. Description: in vivo comparison of nanolipogels and PLGA particles, survival. As to conditions: 0.625 mg MPA per kg. From the text: The efficacy of nanolipogels was compared to PLGA using both in vivo and in vitro evaluation. […] Survival time was monitored to determine and compare in vivo efficacy between particles.
For assay [2], the system named is female NZB/W F1 mice. In words: survival of lupus-prone mice under life-long weekly therapy. It is filed as in vivo. As for the experimental part:
NZB/W F1 mice develop autoimmunity that resembles human lupus nephritis, with development of glomerulonephritis, anemia, and the generation of autoantibodies specific for double-stranded DNA and other self-antigens. NZB/W F1 mice were administered a life-long, single weekly intraperitoneal injection of nanoparticle therapy beginning at 18 weeks of age, before the onset of proteinuria. The single, weekly MPA dosage in nanoparticles was 0.625 mg of MP A per kg animal (mpk). Control mice received only saline buffer.
Animal studies using female NZB/W F1 mice (The Jackson Laboratory, stock #100008) were performed with the approval of the Yale University Institutional Animal Care and Use Committee. Beginning at 18 weeks of age, NZB/W F1 mice were administered a weekly intraperitoneal injection of nanoparticles or mycophenolic acid in buffer for the entirety of their life. An intraperitoneal injection was used, as opposed to intravenous tail vein injection, to prevent long-term tail vein damage from chronic injections. Mice urine was collected by bladder compression, and blood was collected via retroorbital bleed with isoflurane anesthesia. Mouse survival was continued until symptoms of cachexia (more than 5-10% body weight loss), lethargy, or poor condition warranted humane euthanization.

The test system of assay [3] is CD4 T cells. Description: CD4 T cell proliferation after particle incubation, wash and anti-CD3/anti-CD28 stimulation. It is filed as cell-based. As to conditions: brief incubation, wash, 4 days stimulation. As for the experimental part: CD4 T cells were briefly incubated with particles, washed to remove any unbound particles, and then stimulated for 4 days with anti-CD3 and anti-CD28 antibodies to promote proliferation.

The structures appear in SMILES notation.

Turning to `COc1c(C)c2c(c(O)c1C/C=C(\C)CCC(=O)O)C(=O)OC2` [MPA, mycophenolic acid], the “increase of survival time of treated mice” value in assay [1] is “not”. Besides, the effect on survival entry in assay [2] (0.625 mpk soluble in buffer) is reported as “no effect on extending survival”; in assay [2] (10 mpk (16-fold) in buffer, listed as MPA administered in buffer) it was “could not achieve the same therapeutic effect”; in assay [2] (10 mpk (16-fold) in buffer, listed as free MPA), “no improvement in survival”. Further, in assay [3], the “CD4 T cell proliferation and cytokine production” value was “normal proliferation and cytokine production”.
